Measured values: US10829458B2 (Araxes Pharma LLC, priority 2015, dated 2020)

Assays:
Whole blood stability = type: in vitro ADME; settings: 37° C., time points 0, 1, 2, 4 hr, LC/MS/MS; for half-life at 5 µM: mouse, whole blood, read-out: Whole Blood Stability (T1/2) hr. Mouse (converted)
Method: Test compounds were prepared as a 500 μM stock solution in DMSO (Adding 10 μl of 10 mM DMSO stock solution to 190 μl of 100% DMSO). Whole blood was thawed on ice. A whole blood plate was prepared by adding 460 μl of the whole blood (different species as needed) to a 96-well in ml deep well plate. The whole blood plate was preincubated at 37° C. for 10 min. 4 μl of compound solution and 396 μl of whole blood was added to the plate and mixed thoroughly. Each sample was aliquoted (30 μl) to the incubation plate (cluster tubes) and quenched at time zero with ice-cold 100% ACN, and the incubation plates were added to the 37° C. incubator (200 μl).
The time zero sample was maintained at 4° C. until centrifuged. All other samples were quench at different time points (1, 2, 4 hr), vortexed for 30 seconds and centrifuged at 3500 rpm for 15 min at 4° C. 30 μl of supernatant was added to 170 μl 0.1% FA aqueous solution and the sample was analyzes by LC/MS/MS.

[1] = target: T1, KRAS G12C 1-169, his-tagged protein, GDP-loaded (Homo sapiens, UniProt P01116, G12C); test: Biochemical assay: covalent modification of KRAS G12C measured by mass spectrometry (RapidFire/TOF or Q-Exactive); settings: covalent binding to KRAS G12C; compounds of structure (III)
T1 construct: KRAS G12C 1-169, his-tagged protein, GDP-loaded
Method in brief: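 GDP-loaded his-tagged KRAS G12C 1-169 at 2 μM in 20 mM Hepes, 150 mM NaCl, 1 mM MgCl2 incubated at room temperature with compound (10, 30 or 100 μM final, 2% DMSO) for 30 min, 2 h or 24 h, then quenched with formic acid. Intact-protein LC-MS (RapidFire/TOF or Q-Exactive) with deconvolution quantified modified versus unmodified protein.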

Row | half-life at 5 µM (Whole blood stability) [h] | Whole Blood Stability (T1/2) hr. Mouse (Whole blood stability) [h] | SMILES | Binding % [1]
1 | – | 10.4 | C=CC(=O)N1CCN(c2ncnc3c(F)c(-c4c(O)cccc4F)c(Cl)cc23)[C@@H](C)C1 (atropisomer, axis not shown) [III-24, 1-((S)-4-((S)-6-chloro-8-fluoro-7-(2-fluoro-6-hydroxy-phenyl)quinazolin-4-yl)-3-methyl-piperazin-1-yl)prop-2-en-1-one] | +++ (+++ indicates binding activity greater than 90%)
2 | – | 6.2 | C=CC(=O)N1CCN(c2ncnc3c(F)c(-c4c(O)cccc4F)c(Cl)cc23)[C@@H](C)C1 [III-14, 1-((3S)-4-(6-chloro-8-fluoro-7-(2-fluoro-6-hydroxy-phenyl)quinazolin-4-yl)-3-methyl-piperazin-1-yl)prop-2-en-1-one] | ++ (++ indicates activity from 50% to 90%)
3 | – | 11.1 | C=CC(=O)N1[C@H](C)CN(c2ncnc3c(F)c(-c4c(O)cccc4F)c(Cl)cc23)C[C@@H]1C [III-15, 1-((2S,6R)-4-(6-chloro-8-fluoro-7-(2-fluoro-6-hydroxy-phenyl)quinazolin-4-yl)-2,6-dimethyl-piperazin-1-yl)prop-2-en-1-one] | ++ (++ indicates activity from 50% to 90%)
4 | > 12 | – | C=CC(=O)N1[C@H](C)CN(c2ncnc3c(F)c(-c4c(O)cccc4F)c(Cl)cc23)C[C@H]1C [III-22, 1-((2R,6R)-4-(6-chloro-8-fluoro-7-(2-fluoro-6-hydroxy-phenyl)quinazolin-4-yl)-2,6-dimethyl-piperazin-1-yl)prop-2-en-1-one] | + (+ indicates binding activity up to 50%)
5 | 9.9 | – | C=CC(=O)N1C[C@H](C)N(c2ncnc3c(F)c(-c4c(O)cccc4F)c(Cl)cc23)[C@@H](C)C1 [III-37, 1-((3S,5S)-4-(6-chloro-8-fluoro-7-(2-fluoro-6-hydroxy-phenyl)quinazolin-4-yl)-3,5-dimethyl-piperazin-1-yl)prop-2-en-1-one] | ++ (++ indicates activity from 50% to 90%)

The remaining lines, values behind:

Row | SMILES | half-life at 5 µM (Whole blood stability) [h] | Whole Blood Stability (T1/2) hr. Mouse (Whole blood stability) [h] | Binding % [1]
6 | C=CC(=O)N1CCN(c2ncnc3c(F)c(-c4c(O)cccc4F)c(Cl)cc23)CC1 (atropisomer, axis not shown) [A, reference compound] | 3.99 | – | –
7 | C=CC(=O)N1CCN(c2ncnc3c(F)c(-c4c(O)cccc4F)c(Cl)cc23)[C@@H](C)C1 (atropisomer, axis not shown) [III-23, 1-((S)-4-((R)-6-chloro-8-fluoro-7-(2-fluoro-6-hydroxy-phenyl)quinazolin-4-yl)-3-methyl-piperazin-1-yl)prop-2-en-1-one] | > 12 | – | + (+ indicates binding activity up to 50%)
8 | C=CC(=O)N1[C@H](C)CN(c2ncnc3c(F)c(-c4c(O)cccc4F)c(Cl)cc23)C[C@@H]1C (atropisomer, axis not shown) [III-29, 1-((2S,6R)-4-((R)-6-chloro-8-fluoro-7-(2-fluoro-6-hydroxy-phenyl)quinazolin-4-yl)-2,6-dimethyl-piperazin-1-yl)prop-2-en-1-one] | 10.9 | – | + (+ indicates binding activity up to 50%)
9 | C=CC(=O)N1CCN(c2ncnc3c(F)c(-c4c(O)cccc4F)c(Cl)cc23)C(C)(C)C1 [III-17, 1-(4-(6-chloro-8-fluoro-7-(2-fluoro-6-hydroxy-phenyl)quinazolin-4-yl)-3,3-dimethyl-piperazin-1-yl)prop-2-en-1-one] | 12.5 | – | ++ (++ indicates activity from 50% to 90%)
10 | C=CC(=O)N1[C@@H](C)CN(c2ncnc3c(F)c(-c4c(O)cccc4F)c(Cl)cc23)C[C@@H]1C [III-18, 1-((2S,6S)-4-(6-chloro-8-fluoro-7-(2-fluoro-6-hydroxy-phenyl)quinazolin-4-yl)-2,6-dimethyl-piperazin-1-yl)prop-2-en-1-one] | 8.8 | – | + (+ indicates binding activity up to 50%)
11 | C=CC(=O)N1CCN(c2ncnc3c(F)c(-c4c(O)cccc4F)c(Cl)cc23)C[C@@H]1C [III-20, 1-((2S)-4-(6-chloro-8-fluoro-7-(2-fluoro-6-hydroxy-phenyl)quinazolin-4-yl)-2-methyl-piperazin-1-yl)prop-2-en-1-one] | 10.6 | – | ++ (++ indicates activity from 50% to 90%)
12 | C=CC(=O)N1CCN(c2ncnc3c(F)c(-c4c(O)cccc4F)c(Cl)cc23)C[C@H]1C [III-21, 1-((2R)-4-(6-chloro-8-fluoro-7-(2-fluoro-6-hydroxy-phenyl)quinazolin-4-yl)-2-methyl-piperazin-1-yl)prop-2-en-1-one] | > 12 | – | ++ (++ indicates activity from 50% to 90%)
13 | C=CC(=O)N1C[C@@H](C)N(c2ncnc3c(F)c(-c4c(C)ccc5cn[nH]c45)c(Cl)cc23)[C@@H](C)C1 [III-42, 1-((3S,5R)-4-(6-chloro-8-fluoro-7-(6-methyl-1H-indazol-7-yl)quinazolin-4-yl)-3,5-dimethyl-piperazin-1-yl)prop-2-en-1-one] | – | – | ++ (++ indicates activity from 50% to 90%)
14 | C=CC(=O)N1[C@H](C)CN(c2c(C#N)cnc3c(F)c(-c4c(O)cccc4F)c(Cl)cc23)C[C@@H]1C [III-43] | – | – | ++ (++ indicates activity from 50% to 90%)
